The results in this text go back to patent publication US6337069B1, “Method of treating rhinitis or sinusitis by intranasally administering a peptidase” (B.M.R.A. Corporation B.V., priority 2001, dated 2002).

The test system of series [1] is vasodilation evoked by capsaicin. Nature of the series: Capsaicin-evoked vasodilation in pig nasal mucosa in vivo.
Method: Experiments were performed on pigs of both sexes (body weight 18-25 kg). All animals were premedicated with atropine (0.05 mg/kg) and ketamine (20 mg/kg i.m.). They were anesthesized with thiopentone (5 mg/kg i.v.). After tracheostomy, animals were intubated and artificially ventilated by a volume regulated ventilator. During surgery, animals were given a continuous i.v. infusion of Ringer's solution, pancuronium bromide (0.25 mg/kg) and heparin. […] Catheters were placed in the femoral artery for systemic blood pressure and heart rate monitoring and in the femoral vein for thiopentone, heparin and fluid administration (300 ml/hr). The contralateral femoral vein was canulated for blood sampling. […] Selective recording of the nasal arterial blood flow was performed with a Transonic flow probe (probe 2.4RB143) of 2.4 mm diameter placed around the sphenopalatine artery. The flow probe was connected to a T202S ultrasonic blood flowmeter. All the arterial branches situated downstream of the flow probe were ligated and cut except for the superficial temporal artery which was cannulated with a PE 90 catheter for infusions or injections.
(§2) Variations in the area under the curve (AUC) of the sphenopalatine artery vascular resistance (Vr), derived from both mean arterial blood pressure and systemic blood flow curves, were analyzed over time. Durations of the responses of the vascular resistance were compared and all results were expressed in percent of baseline. Vascular parameters were recorded simultaneously using a 6 pen trace recorder.
(§3) All animals were intranasally administered DPIV (50 μg, 26.5 pmoles/kg), subjected to sympathetic nerve stimulation (SNS, 15 V, 5 ms, 10 Hz for 2 minutes) and then infused with histamine (0.1-25 μg), capsacin (0.01-25 μg), bradykinin (0.001-10 μg), SP or its C-terminal fragment SP 5-11, DPPIV, or NK1 antagonist L733060 in the superficial temporal artery under controlled conditions. In each case, the vascular response of the animal was measured. This entire procedure was then repeated after local i.a. pretreatment with the alpha-adrenergic receptor antagonist phenoxybenzanime (1 mg/kg).
Series [2] relates to histamine vasodilatory effects. Nature of the series: Histamine-evoked vasodilation in pig nasal mucosa in vivo. The note with it: no DPPIV. On the procedure: (§1) Each experiment lasted approximately 8 hours.
Series [3] is described as follows: Basal vascular parameters in the anaesthetised pig in vivo (blood flow, heart rate, MAP, vascular resistance). The protocol:
as §1
The basal blood flow in the internal maxillary artery of the pig under control conditions was 4.92+/−0.7 ml min^−1 kg^−1. After section of the sympathetic nerves on the left side, the homolateral nasal arterial flow was 6.1+/−0.26 ml min^−1 kg^−1 (representing a 19.34% +/−4.3% increase). The mean arterial blood pressure (MAP) was not modified by the section of the sympathetic nerves. […] Sympathetic nerve stimulation at 10 Hz for 5 minutes reduced the blood flow in the maxillary artery from 4.92+/−0.7 ml min^−1 kg^−1 to 1.40+/−0.47 ml min^−1 kg^−1, representing an […] of 71.5% and lasting more than 6 minutes. The i.a. infusion of phenoxybenzamine induced a MAP reduction of 10+/−2%.

The test system of series [4] is SP-evoked vasodilatory response. As to the kind of experiment: Modulation of SP-evoked vasodilation in pig nasal mucosa in vivo. Conditions: pretreatment 114 nmoles/kg; all doses of SP used except 100 ng.
Method: Experiments were performed on pigs of both sexes (body weight 18-25 kg). All animals were premedicated with atropine (0.05 mg/kg) and ketamine (20 mg/kg i.m.). They were anesthesized with thiopentone (5 mg/kg i.v.). After tracheostomy, animals were intubated and artificially ventilated by a volume regulated ventilator. During surgery, animals were given a continuous i.v. infusion of Ringer's solution, pancuronium bromide (0.25 mg/kg) and heparin. Each experiment lasted approximately 8 hours. Catheters were placed in the femoral artery for systemic blood pressure and heart rate monitoring and in the femoral vein for thiopentone, heparin and fluid administration (300 ml/hr). The contralateral femoral vein was canulated for blood sampling. […] Selective recording of the nasal arterial blood flow was performed with a Transonic flow probe (probe 2.4RB143) of 2.4 mm diameter placed around the sphenopalatine artery. The flow probe was connected to a T202S ultrasonic blood flowmeter. […]
Variations in the area under the curve (AUC) of the sphenopalatine artery vascular resistance (Vr), derived from both mean arterial blood pressure and systemic blood flow curves, were analyzed over time. […] Vascular parameters were recorded simultaneously using a 6 pen trace recorder. […]
For series [5], the system named is sphenopalatine vascular resistance. As to the kind of experiment: Vasodilator dose-response of SP and SP 5-11 in pig in vivo. The note with it: for reduction in SVR: before DPPIV.
Method: Experiments were performed on pigs of both sexes (body weight 18-25 kg). All animals were premedicated with atropine (0.05 mg/kg) and ketamine (20 mg/kg i.m.). They were anesthesized with thiopentone (5 mg/kg i.v.). After tracheostomy, animals were intubated and artificially ventilated by a volume regulated ventilator. During surgery, animals were given a continuous i.v. infusion of Ringer's solution, pancuronium bromide (0.25 mg/kg) and heparin. Each experiment lasted approximately 8 hours. Catheters were placed in the femoral artery for systemic blood pressure and heart rate monitoring and in the femoral vein for thiopentone, heparin and fluid administration (300 ml/hr). The contralateral femoral vein was canulated for blood sampling. Surgical preparation of the internal maxillary artery was done in accordance with Lacroix (Acta Physiol. Scand. 136:1-63 (1989)). Selective recording of the nasal arterial blood flow was performed with a Transonic flow probe (probe 2.4RB143) of 2.4 mm diameter placed around the sphenopalatine artery. The flow probe was connected to a T202S ultrasonic blood flowmeter. All the arterial branches situated downstream of the flow probe were ligated and cut except for the superficial temporal artery which was cannulated with a PE 90 catheter for infusions or injections.
as §2, §3
Therefore, the same animal was used to perform dose-response curves with SP both before and after pretreatment with DPPIV. A dose-response curve for duration of vasodilation and area under the curve was constructed using doses of SP in the range of 1 pg to 0.1 μg. […] The same animals received 50 μg (530 pmoles) of DPPIV and similar doses of SP were injected. […] Since DPPIV cleaves SP into SP 5-11, experiments were conducted to determine whether SP 5-11 is also capable of decreasing SVR.
The mark [6] stands for this setting: SNS and PBZ pretreatment, no DPPIV, capsaicin 8.2×10^−08 moles.

Ends that are not written are not given here.

Turning to `COc1cc(CNC(=O)CCCCC=CC(C)C)ccc1O` [Capsaicin, 8-methyl-N-vanillyl-6-nonenamide], in series [1] (following SNS, similar to control conditions), the “effect of capsaicin injection on Vr” value is on record as “dose-dependent decrease of Vr”.

With `NCCc1c[nH]cn1` [Histamine], the results for the “reduction in duration of histamine effect vs control” value in series [2] (histamine i.a. 1.4×10^−07 moles following SNS 10 Hz 5 minutes) and in series [2] (histamine i.a. 5.4×10^−09 moles following SNS 10 Hz 5 minutes) were 32% and 33%, respectively.

In the case of `FC(F)(F)c1cc(CO[C@H]2CCCN[C@H]2c2ccccc2)cc(C(F)(F)F)c1` [L-733060], the “vascular effect of the antagonist” value in series [3] (pretreatment with 114 nmoles/kg) was “vasoconstrictive effect”. In addition, the “blockade of SP-induced decrease in SVR” value in series [4] is reported as “clear inhibition of the SP effect”.

On to `CC(COc1ccccc1)N(CCCl)Cc1ccccc1` (centres unmarked) [phenoxybenzamine], for which the MAP reduction in series [3] (i.a. infusion of phenoxybenzamine) was 10+/−2%. For the same molecule, in series [1] (setting [6]), the “reduction of AUC of capsaicin effect” value stood at 26.6% and the “reduction of duration of vasodilation evoked by capsaicin” value is given as 39.9%. Also, the “variation of vasodilatory effect of capsaicin” value in series [1] (after SNS and PBZ pretreatment, any doses, no DPPIV) is “no significant variation”.

With “SP 5-11: C-terminal fragment of SP produced by DPPIV cleavage (QQFFGLM; ends and bridges not checked; UniProt P20366 62-68, looked up, fragment)”, the “decrease in SVR” value in series [5] (SP 5-11 10 pg) amounted to 5%; in series [5] (SP 5-11 1 μg), 35%. Besides, in series [5] (pig, in vivo), the “SP 5-11 less potent than SP at causing vasodilation” value is reported as “at least 100 fold”.

With “SP: substance P, bioactive peptide released by sensory neurons; NK1 agonist”, the “reduction in SVR” value in series [5] (SP 100 pg) was determined as 13.1%; in series [5] (SP 1 ng), 14.9%. The “potency of SP relative to SP 5-11 as a vasodilator” value in series [5] (based on molarity) amounted to 200 fold. The values for the vasodilation in series [5] (local intraarterial administration of 1 pg SP) and in series [5] (local intraarterial administration of 100 ng SP) were 15.1% +/−3.3% and 37.3% +/−3.3%, respectively.
